Results as given in patent US11339192B2, “Bicyclic peptidyl inhibitors” (priority 2017, dated 2022).
Where two headings read alike, the source gives them in different places. Each block holds one molecule with its values, some of them ahead of it. Numbered stars: 1 amine (or outer) side, 2 acyl side, 3 side chain; on linkers, the order of the positions; unused ones are H or OH. Bridge positions count the residues as written; N and C are the ends. Square brackets hold non-standard residues; d marks the D form. Peptide text beside a SMILES is read from it. Trimesoyl = O=C(c1cc(C(=O)[*:2])cc(C(=O)[*:3])c1)[*:1]; 2Nal = N[C@@H](Cc1ccc2ccccc2c1)C(=O)O; Dap = NC[C@H](N)C(=O)O; βAla = NCCC(=O)O

Experiments:
[1] = Proteolytic stability in human serum (analytical HPLC)
Experimental: The proteolytic stability of peptide 7 was assessed by incubation in human serum at 37° C. and quantitation of the remaining peptide as a function of time by analytical HPLC.

[2] = system: HeLa cells; assay: Cellular uptake of FITC-labeled peptides by flow cytometry; conditions: for Permeability (%), cellular uptake efficiency: FITC-labeled peptide 5 μM, 2 h, relative to CPP1 (100%); for Permeability (%), cellular uptake efficiency / cellular entry efficiency (in words): HeLa cells; for cellular entry efficiency (in words): flow cytometry
Experimental: (§1) For flow cytometry analysis, HeLa cells were seeded into 12-well plates (1.5×10^5 cells per well) 24 hours before treatment. The next day, 5 μM FITC-labeled peptide in DMEM containing 10% FBS was added to each well and allowed to incubate at 37° c. for 2 hours. […] This washing process was repeated once to remove any free compound and left over trypsin. The washed pellet was resuspended in DPBS with 1% FBS and analyzed on a BD LSR II flow cytometer. Data presented were the mean±SD of three independent experiments.

[3] = system: HeLa cells
Experimental: as §1

[4] = biological target: T1, NEMO-IKKβ interaction (Homo sapiens, UniProt Q9Y6K9); assay: HTRF assay of inhibition of the NEMO-IKKβ interaction; assay type: binding; conditions: for NEMO-binding affinity on Ala substitution (in words): alanine scan of peptide 7; for fold lower NEMO-binding affinity / potency: relative to peptide 7
T1 construct: cells were transformed with a pGEX4T3-NEMO(1-196) plasmid; made in house; host or cells: Escherichia coli BL21(DE3)

[5] = system: NF-κB activation in HEK293(Luc) cells; assay: NF-κB luciferase assay; assay type: cell-based
Experimental: The ability of the bicyclic peptidyl inhibitors to inhibit NF-κB Signaling was analyzed. The ability of peptide 7 to enter the cell and block the intracellular NEMO-IKK interaction was assessed by using HEK293(Luc) cells, which harbor a luciferase gene under the transcriptional control of NF-κB. For the NF-κB Luciferase Assays, culture media was exchanged for DMEM containing 10% FBS and 1% penicillin/streptomycin the day before seeding to remove hygromycin B. HEK293(Luc) cells were seeded in 50 μL of assay medium (DMEM, 10% FBS, and 1% penicillin/streptomycin) in an opaque 96-well microplate (3000 cells per well) and incubated overnight. The peptide inhibitors were added to the cells the next day in 5 μL of assay medium and the plate was incubated at 37° c. for 2 h. After that, 5 μL of assay media containing recombinant TNFα (final concentration 5 ng/mL) was added to the wells. The plate was then returned to the incubator for 4 h at 37° c. Finally, 50 μL of ONE-Step luciferase assay reagent was added to each well and after 10 minutes the luminescence was measured on a Tecan Infinite M1000 Pro microplate reader. Data presented were the mean±SD of at least three independent experiments (n=6 for basal activities).

[6] = system: A2780 cells; assay: MTT cell viability assay, A2780; assay type: cell-based; conditions: 72 hours
Experimental: For the MTT cell viability assay, HeLa, HEK293, A2780, OSE or A375 cells were seeded into a 96-well microplate (3000 cells/well) in 100 μl of respective growth media and incubated at 37° c. overnight. The next day, a serial dilution of peptide was added to each well in 10 μL of assay medium. The treated cells were incubated at 37° c. with 5% CO2 for 72 hours. Following compound treatment, 10 μL of MTT stock solution (Roche) was added to each well. After an additional 4 h at 37° C., 100 μL of SDS-HCl solubilizing solution was added to each well and the plate was returned to the incubator overnight at 37° c. A Tecan Infinite M1000 Pro microplate reader was used the following morning to measure the absorbance of the formazan product at 565 nm.

T1 sequence (Q9Y6K9 1-196): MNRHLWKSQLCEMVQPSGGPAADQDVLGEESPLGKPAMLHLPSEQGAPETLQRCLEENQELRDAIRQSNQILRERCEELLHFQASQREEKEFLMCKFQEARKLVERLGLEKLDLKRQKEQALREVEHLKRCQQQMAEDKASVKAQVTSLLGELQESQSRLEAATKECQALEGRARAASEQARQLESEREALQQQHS

SMILES: CC[C@H](C)[C@H](NC(=O)[C@H](CCCCN)NC(=O)[C@@H](NC(=O)[C@H](CCC(N)=O)NC(=O)[C@@H](N)CCCNC(=N)N)[C@@H](C)CC)C(=O)N[C@@H](Cc1c[nH]c2ccccc12)C(=O)N[C@@H](Cc1ccccc1)C(=O)N[C@@H](CCC(N)=O)C(=O)N[C@@H](CC(N)=O)C(=O)N[C@@H](CCCNC(=N)N)C(=O)N[C@@H](CCCNC(=N)N)C(=O)N[C@@H](CCSC)C(=O)N[C@@H](CCCCN)C(=O)N[C@@H](Cc1c[nH]c2ccccc12)C(=O)N[C@@H](CCCCN)C(=O)N[C@@H](CCCCN)C(=O)NCC(=O)NCC(=O)N[C@H](C(=O)N[C@@H](C)C(=O)N[C@@H](CC(C)C)C(=O)N[C@@H](CC(=O)O)C(=O)N[C@@H](Cc1c[nH]c2ccccc12)C(=O)N[C@@H](CO)C(=O)N[C@@H](Cc1c[nH]c2ccccc12)C(=O)N[C@@H](CC(C)C)C(=O)N[C@@H](CCC(N)=O)C(=O)N[C@H](C(=O)N[C@@H](CCC(=O)O)C(=O)O)[C@@H](C)O)[C@@H](C)O [Peptide 1, reference compound]
half-life [1]: ~20 min | Permeability (%), cellular uptake efficiency [2]: 35%

Permeability (%), cellular uptake efficiency [2]: 76%
SMILES: CC[C@H](C)[C@@H]1NC(=O)[C@H](Cc2c[nH]c3ccccc23)NC(=O)CNC(=O)c2cc3cc(c2)C(=O)NC[C@H](NC(=O)[C@H](Cc2ccc(O)cc2)NC1=O)C(=O)N[C@@H](Cc1ccccc1)C(=O)N[C@@H](Cc1ccc2ccccc2c1)C(=O)N[C@@H](CCCNC(=N)N)C(=O)N[C@@H](CCCNC(=N)N)C(=O)N[C@@H](CCCNC(=N)N)C(=O)N[C@H](C(=O)NCCC(=O)NCCC(=O)N[C@@H](CCCCN)C(=O)O)CNC3=O [Peptide 2, Tm(GWIY)Δ(FΦRRRΔ)-BBK] (GWIY[Dap]F[2Nal]RRR[Dap][βAla][βAla]K-OH; linker N-5-11 via Trimesoyl; C-terminus assumed)

SMILES: CC[C@H](C)[C@@H]1NC(=O)[C@H](Cc2c[nH]c3ccccc23)NC(=O)CNC(=O)c2cc3cc(c2)C(=O)NC[C@H](NC(=O)[C@H](Cc2ccc(O)cc2)NC1=O)C(=O)N[C@@H](Cc1ccccc1)C(=O)N[C@@H](Cc1ccc2ccccc2c1)C(=O)N[C@@H](CCCNC(=N)N)C(=O)N[C@@H](CCCNC(=N)N)C(=O)N[C@@H](CCCNC(=N)N)C(=O)N[C@@H](CCCNC(=N)N)C(=O)N[C@H](C(=O)NCCC(=O)NCCC(=O)N[C@@H](CCCCN)C(=O)O)CNC3=O [Peptide 3, Tm(GWIY)Δ(FΦRRRRΔ)-BBK] (GWIY[Dap]F[2Nal]RRRR[Dap][βAla][βAla]K-OH; linker N-5-12 via Trimesoyl; C-terminus assumed)
cellular entry efficiency (in words) [3]: slightly decreased the cellular entry efficiency

Permeability (%), cellular uptake efficiency [2]: 71%
SMILES: CC[C@H](C)[C@@H]1NC(=O)[C@H](Cc2c[nH]c3ccccc23)NC(=O)CNC(=O)c2cc3cc(c2)C(=O)NC[C@H](NC(=O)[C@H](Cc2ccc(O)cc2)NC1=O)C(=O)N[C@@H](Cc1ccccc1)C(=O)N[C@@H](Cc1ccc2ccccc2c1)C(=O)N[C@@H](CCCNC(=N)N)C(=O)N[C@@H](CCCNC(=N)N)C(=O)N[C@@H](CCCNC(=N)N)C(=O)N[C@H](C(=O)N[C@@H](CCCNC(=N)N)C(=O)NCCC(=O)N[C@@H](CCCCN)C(=O)O)CNC3=O [Peptide 4, Tm(GWIY)Δ(FΦRRRΔ)-RBK] (GWIY[Dap]F[2Nal]RRR[Dap]R[βAla]K-OH; linker N-5-11 via Trimesoyl; C-terminus assumed)
cellular entry efficiency (in words) [2]: slightly decreased the cellular entry efficiency

Permeability (%), cellular uptake efficiency [2]: 71%
SMILES: CC[C@H](C)[C@@H]1NC(=O)[C@H](Cc2c[nH]c3ccccc23)NC(=O)CNC(=O)c2cc3cc(c2)C(=O)NC[C@@H](C(=O)N[C@H](CCCNC(=N)N)C(=O)NCCC(=O)N[C@@H](CCCCN)C(=O)O)NC(=O)[C@H](CCCNC(=N)N)NC(=O)[C@H](CCCNC(=N)N)NC(=O)[C@H](CCCNC(=N)N)NC(=O)[C@H](Cc2ccc4ccccc4c2)NC(=O)[C@H](Cc2ccccc2)NC(=O)[C@H](CNC3=O)NC(=O)[C@H](Cc2ccc(O)cc2)NC1=O [Peptide 5, Tm(GWIY)Δ(FΦRRRΔ)-rBK] (GWIY[Dap]F[2Nal]RRR[Dap][dR][βAla]K-OH; linker N-5-11 via Trimesoyl; C-terminus assumed)
cellular entry efficiency (in words) [2]: slightly decreased the cellular entry efficiency

Permeability (%), cellular uptake efficiency [2]: 322% | increase of uptake efficiency ([2]; second arginine replaced with D-arginine, versus peptide 2): 4.2 fold
SMILES: CC[C@H](C)[C@@H]1NC(=O)[C@H](Cc2c[nH]c3ccccc23)NC(=O)CNC(=O)c2cc3cc(c2)C(=O)NC[C@H](NC(=O)[C@H](Cc2ccc(O)cc2)NC1=O)C(=O)N[C@@H](Cc1ccccc1)C(=O)N[C@@H](Cc1ccc2ccccc2c1)C(=O)N[C@@H](CCCNC(=N)N)C(=O)N[C@H](CCCNC(=N)N)C(=O)N[C@@H](CCCNC(=N)N)C(=O)N[C@H](C(=O)NCCC(=O)NCCC(=O)N[C@@H](CCCCN)C(=O)O)CNC3=O [Peptide 6, Tm(GWIY)Δ(FΦRrRΔ)-BBK] (GWIY[Dap]F[2Nal]R[dR]R[Dap][βAla][βAla]K-OH; linker N-5-11 via Trimesoyl; C-terminus assumed)

SMILES: CC[C@H](C)[C@@H]1NC(=O)[C@H](Cc2c[nH]c3ccccc23)NC(=O)CNC(=O)c2cc3cc(c2)C(=O)NC[C@@H](C(=O)NCCC(=O)NCCC(=O)N[C@@H](CCCCN)C(=O)O)NC(=O)[C@H](CCCNC(=N)N)NC(=O)[C@@H](CCCNC(=N)N)NC(=O)[C@H](CCCNC(=N)N)NC(=O)[C@H](Cc2ccc4ccccc4c2)NC(=O)[C@H](C)NC(=O)[C@H](CNC3=O)NC(=O)[C@H](C)NC(=O)[C@H](Cc2ccc(O)cc2)NC1=O [Peptide 15, Tm(GWIYA)Δ(AΦRrRΔ)-BBK] (GWIYA[Dap]A[2Nal]R[dR]R[Dap][βAla][βAla]K-OH; linker N-6-12 via Trimesoyl; C-terminus assumed)
NEMO-binding affinity on Ala substitution (in words) [4]: significantly de-creased the NEMO-binding affinity

SMILES: CC[C@H](C)[C@@H]1NC(=O)[C@H](Cc2c[nH]c3ccccc23)NC(=O)CNC(=O)c2cc3cc(c2)C(=O)NC[C@@H](C(=O)NCCC(=O)NCCC(=O)N[C@@H](CCCCN)C(=O)O)NC(=O)[C@H](CCCNC(=N)N)NC(=O)[C@@H](CCCNC(=N)N)NC(=O)[C@H](CCCNC(=N)N)NC(=O)[C@H](C)NC(=O)[C@H](Cc2ccccc2)NC(=O)[C@H](CNC3=O)NC(=O)[C@H](C)NC(=O)[C@H](Cc2ccc(O)cc2)NC1=O [Peptide 16, Tm(GWIYA)Δ(FARrRΔ)-BBK] (GWIYA[Dap]FAR[dR]R[Dap][βAla][βAla]K-OH; linker N-6-12 via Trimesoyl; C-terminus assumed)
NEMO-binding affinity on Ala substitution (in words) [4]: significantly de-creased the NEMO-binding affinity

SMILES: CC[C@H](C)[C@@H]1NC(=O)[C@H](C)NC(=O)CNC(=O)c2cc3cc(c2)C(=O)NC[C@@H](C(=O)NCCC(=O)NCCC(=O)N[C@@H](CCCCN)C(=O)O)NC(=O)[C@H](CCCNC(=N)N)NC(=O)[C@@H](CCCNC(=N)N)NC(=O)[C@H](CCCNC(=N)N)NC(=O)[C@H](Cc2ccc4ccccc4c2)NC(=O)[C@H](Cc2ccccc2)NC(=O)[C@H](CNC3=O)NC(=O)[C@H](C)NC(=O)[C@H](C)NC1=O [Peptide 20, Tm(GAIAA)Δ(FΦRrRΔ)-BBK] (GAIAA[Dap]F[2Nal]R[dR]R[Dap][βAla][βAla]K-OH; linker N-6-12 via Trimesoyl; C-terminus assumed)
fold lower NEMO-binding affinity / potency [4]: 16 fold | effect on TNFα-induced luciferase activity (in words) [5]: decreased the luciferase activity only at high concentrations | activity on A2780 viability (in words) [6]: much less active than peptide 7

SMILES: C[C@@H]1NC(=O)CNC(=O)c2cc3cc(c2)C(=O)NC[C@@H](C(=O)NCCC(=O)NCCC(=O)N[C@@H](CCCCN)C(=O)O)NC(=O)[C@H](CCCNC(=N)N)NC(=O)[C@@H](CCCNC(=N)N)NC(=O)[C@H](CCCNC(=N)N)NC(=O)[C@H](Cc2ccc4ccccc4c2)NC(=O)[C@H](Cc2ccccc2)NC(=O)[C@H](CNC3=O)NC(=O)[C@H](C)NC(=O)[C@H](C)NC(=O)[C@H](C)NC1=O [Peptide 21, Tm(GAAAA)Δ(FΦRrRΔ)-BBK] (GAAAA[Dap]F[2Nal]R[dR]R[Dap][βAla][βAla]K-OH; linker N-6-12 via Trimesoyl; C-terminus assumed)
fold lower NEMO-binding affinity / potency [4]: > 100 fold | effect on TNFα-induced luciferase activity (in words) [5]: decreased the luciferase activity only at high concentrations | activity on A2780 viability (in words) [6]: much less active than peptide 7
